This passage reports viability results from article PMC10766964, “Copper-catalyzed synthesis of pyrazolo[1,5-a]pyrimidine based triazole-linked glycohybrids: mechanistic insights and bio-applications” (Scientific Reports, 2024).

For the test, the system named is MDA-MB-231 (human breast cancer) cell line. As to the kind of experiment: MTT cell viability assay in MDA-MB-231 cells. It is filed as cell-based. The settings on record: 72 h. As to the method:
Thus, we screened the synthesized library of pyrazolo[1,5-a]pyrimidin-7-ols 4a–4i. Anticancer activity (in terms of growth inhibition/decreased cell viability with respect to control) of all synthesized compounds (n = 9) was investigated by MTT assay in MDA-MB-231 (human breast cancer) cell line at different concentrations for 72 h. […] Thus, it was aimed to investigate the anticancer activity of a synthesized library of triazole-linked glycohybrids of pyrazolo[1,5-a]pyrimidines. […] The MTT assay was used to investigate the anticancer activity of twenty-seven synthesized compounds on the growth inhibition and decrement in cell viability of MDA-MB-231 (human breast cancer). Different concentrations were tested for 72 h, and the results were compared to a control. MDA-MB-231, a human breast cancer cell line, was cultured under standard conditions. Specifically, they were grown in Dulbecco’s Modified Eagle’s Medium (DMEM) supplemented with 10% heat-inactivated Fetal Bovine Serum (FBS) and 1% penicillin–streptomycin. The cells were maintained as a monolayer in a 100 mm culture plate and were used for experiments before reaching their 8th passage. Subculturing was performed every third-day using trypsin EDTA treatment. All incubation and maintenance procedures were carried out in a humidified CO2 incubator at 37 °C. To evaluate cell viability, the MTT assay was conducted following standard procedures. After 72 h of cell incubation with or without each compound, cell viability was assessed using MTT (3-(4,5-dimethylthiazol-2-yl)-2,5-diphenyltetrazolium bromide), which is a colorimetric method for determining the number of viable cells in various assays including proliferation, cytotoxicity, or chemosensitivity. The MTT reagent was added to the cells after removal of the medium and incubated for 3 h at 37 °C in the CO2 incubator. The formazan product, which is […] in the tissue culture medium, was dissolved in DMSO, and the absorbance of the formazan product was directly measured at 595 nm using a multimode plate reader without additional processing. The absorbance values are directly proportional to the number of viable cells in culture. The percentage of viable cells in each group was determined relative to the untreated control cells.
(Formazan colour is commonly taken as a measure of viable cells.)

[1] abbreviates: Table 2, MDA-MB-231, MTT, read-out: Cell viability (%) ± SD.
Where [2] appears, read: Table 1, MDA-MB-231, MTT, read-out: Cell Viability (%) ± SD.

The structures appear in SMILES notation. Read-outs that look alike come from different tables or passages of the source.

Take `CC(=O)OC[C@H]1O[C@@H](n2cc(COc3cc(-c4ccc(C(F)(F)F)cc4)nc4ccnn34)nn2)[C@H](OC(C)=O)[C@@H](OC(C)=O)[C@@H]1OC(C)=O` [Compound 9f, (2R,3R,4S,5R,6R)-2-(acetoxymethyl)-6-(4-(((5-(4-(trifluoromethyl)phenyl)pyrazolo[1,5-a]pyrimidin-7-yl)oxy)methyl)-1H-1,2,3-triazol-1-yl)tetrahydro-2H-pyran-3,4,5-triyl triacetate]: under setting [1], the viability at 10 µM turned out to be 92.2 ± 8.51%, the viability at 25 µM was 88.8 ± 8.75% and the viability at 50 µM was determined as 73.8 ± 7.02%.
Take `CC(=O)OC[C@H]1O[C@@H](n2cc(COc3cc(-c4ccc(C(C)C)cc4)nc4ccnn34)nn2)[C@H](OC(C)=O)[C@@H](OC(C)=O)[C@H]1OC(C)=O` [Compound 10g, (2R,3S,4S,5R,6R)-2-(acetoxymethyl)-6-(4-(((5-(4-isopropylphenyl)pyrazolo[1,5-a]pyrimidin-7-yl)oxy)methyl)-1H-1,2,3-triazol-1-yl)tetrahydro-2H-pyran-3,4,5-triyl triacetate]: under setting [1], the viability at 10 µM came out at 85.2 ± 3.5%, the viability at 25 µM was 79.5 ± 8.96% and the viability at 50 µM turned out to be 78.7 ± 2.56%.
`CC(=O)OC[C@H]1O[C@@H](n2cc(COc3cc(-c4ccc5c(c4)OCO5)nc4ccnn34)nn2)[C@H](OC(C)=O)[C@@H](OC(C)=O)[C@H]1OC(C)=O` [Compound 10i, (2R,3S,4S,5R,6R)-2-(acetoxymethyl)-6-(4-(((5-(benzo[d][1,3]dioxol-5-yl)pyrazolo[1,5-a]pyrimidin-7-yl)oxy)methyl)-1H-1,2,3-triazol-1-yl)tetrahydro-2H-pyran-3,4,5-triyl triacetate]: under setting [1], the viability at 10 µM was determined as 100 ± 9.67%, the viability at 25 µM came out at 99.25 ± 0.34% and the viability at 50 µM came out at 98.5 ± 1.88%.
Regarding `Oc1cc(-c2ccc(Br)cc2)nc2ccnn12` [Compound 4c], under setting [2], the viability at 10 µM stood at 100 ± 4.01%, the viability at 25 µM is 99.1 ± 3.93% and the viability at 50 µM was 96.5 ± 2.89%.
For `CC(C)c1ccc(-c2cc(O)n3nccc3n2)cc1` [Compound 4g, 5-(4-isopropylphenyl)pyrazolo[1,5-a]pyrimidin-7-ol], in that order: 101 ± 5.51%, 98.1 ± 2.51% and 70.5 ± 5.69%.
Take `CC(=O)OC[C@H]1O[C@@H](n2cc(COc3cc(-c4ccc(F)cc4)nc4ccnn34)nn2)[C@H](OC(C)=O)[C@@H](OC(C)=O)[C@H]1OC(C)=O` [Compound 10e, (2R,3S,4S,5R,6R)-2-(acetoxymethyl)-6-(4-(((5-(4-fluorophenyl)pyrazolo[1,5-a]pyrimidin-7-yl)oxy)methyl)-1H-1,2,3-triazol-1-yl)tetrahydro-2H-pyran-3,4,5-triyl triacetate]: under setting [1], the viability at 10 µM is 78.4 ± 9.97%, the viability at 25 µM is 68.6 ± 10.1% and the viability at 50 µM came to 71.3 ± 6.17%.
In the case of `CC(=O)OC[C@H]1O[C@@H](n2cc(COc3cc(-c4ccc(F)cc4)nc4ccnn34)nn2)[C@H](OC(C)=O)[C@@H](OC(C)=O)[C@@H]1OC(C)=O` [Compound 9e, (2R,3R,4S,5R,6R)-2-(acetoxymethyl)-6-(4-(((5-(4-fluorophenyl)pyrazolo[1,5-a]pyrimidin-7-yl)oxy)methyl)-1H-1,2,3-triazol-1-yl)tetrahydro-2H-pyran-3,4,5-triyl triacetate], under setting [1], the viability at 10 µM was 98.6 ± 2.25%, the viability at 25 µM is 92.2 ± 1.96% and the viability at 50 µM turned out to be 81.2 ± 9.22%.
With `CC(=O)OC[C@H]1O[C@H](n2cc(COc3cc(-c4ccc(C(F)(F)F)cc4)nc4ccnn34)nn2)[C@@H](OC(C)=O)[C@@H](OC(C)=O)[C@@H]1OC(C)=O` [Compound 11f, (2R,3R,4S,5S,6S)-2-(acetoxymethyl)-6-(4-(((5-(4-(trifluoromethyl)phenyl)pyrazolo[1,5-a]pyrimidin-7-yl)oxy)methyl)-1H-1,2,3-triazol-1-yl)tetrahydro-2H-pyran-3,4,5-triyl triacetate], under setting [1], the viability at 10 µM was 79.6 ± 4.7%, the viability at 25 µM is 74.5 ± 4.44% and the viability at 50 µM was 86.5 ± 7.27%.
The like results for `COc1ccc(-c2cc(OCc3cn([C@H]4O[C@H](COC(C)=O)[C@@H](OC(C)=O)[C@H](OC(C)=O)[C@@H]4OC(C)=O)nn3)n3nccc3n2)cc1` [Compound 11b, (2R,3R,4S,5S,6S)-2-(acetoxymethyl)-6-(4-(((5-(4-methoxyphenyl)pyrazolo[1,5-a]pyrimidin-7-yl)oxy)methyl)-1H-1,2,3-triazol-1-yl)tetrahydro-2H-pyran-3,4,5-triyl triacetate] were, in that order, 99.5 ± 10.2%, 95.2 ± 10.6% and 70.4 ± 10.5%.
For `CC(=O)OC[C@H]1O[C@@H](n2cc(COc3cc(-c4ccc(Br)cc4)nc4ccnn34)nn2)[C@H](OC(C)=O)[C@@H](OC(C)=O)[C@@H]1OC(C)=O` [Compound 9c, (2R,3R,4S,5R,6R)-2-(acetoxymethyl)-6-(4-(((5-(4-bromophenyl)pyrazolo[1,5-a]pyrimidin-7-yl)oxy)methyl)-1H-1,2,3-triazol-1-yl)tetrahydro-2H-pyran-3,4,5-triyl triacetate], in that order: 100 ± 8.01%, 100 ± 8.93% and 99.5 ± 2.89%.
On to `CC(=O)OC[C@H]1O[C@H](n2cc(COc3cc(-c4ccc5c(c4)OCO5)nc4ccnn34)nn2)[C@@H](OC(C)=O)[C@@H](OC(C)=O)[C@@H]1OC(C)=O` [Compound 11i, (2R,3R,4S,5S,6S)-2-(acetoxymethyl)-6-(4-(((5-(benzo[d][1,3]dioxol-5-yl)pyrazolo[1,5-a]pyrimidin-7-yl)oxy)methyl)-1H-1,2,3-triazol-1-yl)tetrahydro-2H-pyran-3,4,5-triyl triacetate], for which, under setting [1], the viability at 10 µM was 97.5 ± 4.91%, the viability at 25 µM came out at 95.3 ± 3.6% and the viability at 50 µM is 93.9 ± 9.08%.
Turning to `Oc1cc(-c2ccc3c(c2)OCO3)nc2ccnn12` [Compound 4i], under setting [2], the viability at 10 µM was found to be 96.6 ± 3.36%, the viability at 25 µM was found to be 89.1 ± 3.51% and the viability at 50 µM was 73.5 ± 6.69%.

The term viability denotes a read-out of living cells in per cent, often relative to untreated cells.
